Assay results from ChEMBL document CHEMBL1201862, “PubChem BioAssay data set” (2004).
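Values below derive from 48-hour exposures of cells grown in 96-well plates, with endpoints linearly interpolated between the two concentrations bracketing the appropriate inhibition level. GI50: concentration for 50% inhibition of growth.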 The source made the active and inactive calls. Rule as the data show it: active = GI50 up to about 1.1 µM and inactive = higher.

Key:
Assay in all cases: growth of human tumour cells (NCI), 48 h
SF-268 = test system: SF-268
HCT-15 = test system: HCT-15
COLO 205 = test system: COLO 205
OVCAR-5 = test system: OVCAR-5
A549 = test system: A549
HT-29 = test system: HT-29
SK-MEL-28 = test system: SK-MEL-28
K562 = test system: K562
IGROV-1 = test system: IGROV-1
MDA-MB-435 = test system: MDA-MB-435
SN12C = test system: SN12C
SF-539 = test system: SF-539
SNB-19 = test system: SNB-19
T47D = test system: T47D
NCI-H460 = test system: NCI-H460
SF-295 = test system: SF-295
HOP-62 = test system: HOP-62
SNB-75 = test system: SNB-75
NCI/ADR-RES = test system: NCI/ADR-RES

Measured: GI50

CC(=O)C1=C(C)N(c2ccccc2)C2(O)C=CC(O)=C3C(=O)c4ccccc4C(=O)C312 (stereo not given)
6.47 µM: HCT-15
inactive: SF-268 20.2 µM | COLO 205 6.18 µM | OVCAR-5 15.8 µM | A549 15.3 µM | HT-29 4.7 µM | SK-MEL-28 19 µM | K562 8.13 µM | IGROV-1 8.91 µM | MDA-MB-435 2.45 µM | SN12C 10.6 µM | SF-539 21.1 µM | SNB-19 17.1 µM | T47D 8.75 µM | NCI-H460 8.87 µM | SF-295 14.9 µM | HOP-62 32.9 µM | SNB-75 35.2 µM | NCI/ADR-RES 3.36 µM

COc1cc(NS(C)(=O)=O)ccc1NCc1c[nH]c2ccc3ncccc3c12
inactive: SF-268 22.4 µM | COLO 205 15.6 µM | OVCAR-5 20.9 µM | A549 27.8 µM | HT-29 23.2 µM | SK-MEL-28 23.1 µM | K562 9.12 µM | IGROV-1 37.1 µM | MDA-MB-435 19.3 µM | SN12C 20.6 µM | SF-539 19.3 µM | SNB-19 30.1 µM | T47D 10.9 µM | NCI-H460 18.2 µM | SF-295 18.5 µM | HOP-62 22.2 µM | SNB-75 14.3 µM | NCI/ADR-RES 20.3 µM
21.7 µM: HCT-15

O=C1/C(=C/c2ccc3c(c2)OCO3)Sc2scc(-c3ccc(O)c(O)c3)[n+]21
1.63 µM: HCT-15
active: K562 0.506 µM | SNB-75 0.644 µM
inactive: SF-268 3.9 µM | COLO 205 2.55 µM | OVCAR-5 8.32 µM | A549 11.1 µM | HT-29 3.74 µM | SK-MEL-28 3.08 µM | IGROV-1 2.7 µM | MDA-MB-435 3.3 µM | SN12C 2.04 µM | SF-539 2.31 µM | SNB-19 10.7 µM | T47D 2.97 µM | NCI-H460 3.56 µM | SF-295 10 µM | HOP-62 6.44 µM | NCI/ADR-RES 1.87 µM

C=C(C)CNC(=S)N(N)c1ccc(OC)cc1
inactive: SF-268 55.3 µM | COLO 205 > 100 µM | OVCAR-5 > 100 µM | A549 > 100 µM | HT-29 74.8 µM | SK-MEL-28 > 100 µM | K562 39.6 µM | IGROV-1 58.6 µM | MDA-MB-435 54.8 µM | SN12C 66.8 µM | SF-539 > 100 µM | SNB-19 > 100 µM | T47D > 100 µM | NCI-H460 > 100 µM | SF-295 > 100 µM | HOP-62 > 100 µM | SNB-75 99.8 µM | NCI/ADR-RES > 100 µM
21.8 µM: HCT-15

CCOC(=O)C12CCC(c3c(C)cccc3C)(O1)C(C(=O)OC)=C2C(=O)OC (stereo not given)
inactive: SF-268 > 6.89 µM | COLO 205 1.87 µM | OVCAR-5 3.19 µM | A549 3.62 µM | SK-MEL-28 > 7.5 µM | K562 3.62 µM | IGROV-1 3.6 µM | SN12C > 6.75 µM | SF-539 2.11 µM | SNB-19 > 9.64 µM | T47D 6.35 µM | NCI-H460 2.23 µM | SF-295 5.45 µM | HOP-62 4.11 µM | SNB-75 3.64 µM | NCI/ADR-RES > 9.25 µM
4.69 µM: HCT-15
active: HT-29 0.748 µM | MDA-MB-435 0.499 µM

CCCCCCCC(CC(=O)O)OC(=O)CC(CCCCCCC)OC1OC(C)C(O)C(O)C1OC1OC(C)C(O)C(O)C1O (stereo not given)
inactive: SF-268 > 100 µM | COLO 205 > 100 µM | OVCAR-5 > 100 µM | A549 > 100 µM | HT-29 > 100 µM | SK-MEL-28 44.6 µM | K562 72.1 µM | IGROV-1 62.2 µM | MDA-MB-435 > 100 µM | SN12C > 100 µM | SF-539 39 µM | SNB-19 > 100 µM | T47D > 100 µM | NCI-H460 > 100 µM | SF-295 > 100 µM | HOP-62 > 100 µM | SNB-75 > 100 µM | NCI/ADR-RES > 100 µM
> 100 µM: HCT-15

COc1nc(OC)nc(-c2cccc(F)c2)n1
13.7 µM: HCT-15
inactive: SF-268 14 µM | COLO 205 15.4 µM | OVCAR-5 11.5 µM | A549 17.1 µM | HT-29 17.1 µM | SK-MEL-28 19 µM | K562 18.1 µM | IGROV-1 16.1 µM | MDA-MB-435 15 µM | SN12C 16.2 µM | SF-539 17.4 µM | SNB-19 16.9 µM | T47D 13.2 µM | NCI-H460 14.9 µM | SF-295 13.4 µM | HOP-62 20.4 µM | SNB-75 21.2 µM | NCI/ADR-RES 14.3 µM

COc1ccc2nc3ccc(OC)cc3c(SCc3ccc([N+](=O)[O-])cc3)c2c1
> 100 µM: HCT-15
inactive: SF-268 54.7 µM | COLO 205 > 100 µM | OVCAR-5 > 100 µM | A549 > 100 µM | HT-29 24.1 µM | SK-MEL-28 > 100 µM | K562 > 100 µM | IGROV-1 63.5 µM | MDA-MB-435 > 100 µM | SN12C > 100 µM | SF-539 39.2 µM | SNB-19 > 100 µM | T47D > 100 µM | NCI-H460 > 100 µM | SF-295 31.5 µM | HOP-62 78.9 µM | SNB-75 37.1 µM | NCI/ADR-RES 67 µM

CN(O)C(=O)c1cccc(Cl)c1
56.1 µM: HCT-15
inactive: SF-268 > 100 µM | COLO 205 > 100 µM | OVCAR-5 > 100 µM | A549 > 100 µM | HT-29 70.6 µM | SK-MEL-28 > 100 µM | K562 > 100 µM | IGROV-1 91.8 µM | MDA-MB-435 > 100 µM | SN12C > 100 µM | SF-539 > 100 µM | SNB-19 > 100 µM | T47D > 100 µM | NCI-H460 95.1 µM | SF-295 > 100 µM | HOP-62 > 100 µM | SNB-75 > 100 µM | NCI/ADR-RES > 100 µM

O=c1oc2ccccc2cc1P(=O)(O)O
> 100 µM: HCT-15
inactive: SF-268 > 100 µM | COLO 205 > 100 µM | OVCAR-5 > 100 µM | A549 > 100 µM | HT-29 > 100 µM | SK-MEL-28 > 100 µM | K562 > 100 µM | IGROV-1 > 100 µM | MDA-MB-435 > 100 µM | SN12C > 100 µM | SF-539 > 100 µM | SNB-19 > 100 µM | T47D > 100 µM | NCI-H460 > 100 µM | SF-295 > 100 µM | HOP-62 > 100 µM | SNB-75 > 100 µM | NCI/ADR-RES > 100 µM

CC(=O)/C=C(/C=N/O)c1ccccc1
inactive: SF-268 > 100 µM | COLO 205 > 100 µM | OVCAR-5 > 100 µM | A549 > 100 µM | HT-29 > 100 µM | SK-MEL-28 > 100 µM | K562 > 100 µM | IGROV-1 > 100 µM | MDA-MB-435 > 100 µM | SN12C > 100 µM | SF-539 > 100 µM | SNB-19 > 100 µM | T47D > 100 µM | NCI-H460 > 100 µM | SF-295 > 100 µM | HOP-62 > 100 µM | SNB-75 56 µM | NCI/ADR-RES > 100 µM
64.3 µM: HCT-15

C/C(=C\c1ccccc1)C(=O)NCc1ccc(C(=O)NCCC(C)C)cc1
> 100 µM: HCT-15
inactive: SF-268 42.6 µM | COLO 205 > 100 µM | OVCAR-5 > 100 µM | A549 > 100 µM | HT-29 41.8 µM | SK-MEL-28 > 100 µM | K562 > 100 µM | IGROV-1 68.7 µM | MDA-MB-435 > 100 µM | SN12C 52.7 µM | SF-539 32.9 µM | SNB-19 36.1 µM | T47D > 100 µM | NCI-H460 > 100 µM | SF-295 37 µM | HOP-62 18.2 µM | SNB-75 21.9 µM | NCI/ADR-RES 45.5 µM

Clc1ccc(Cn2cc(/C=N/n3cnnc3)c3ccccc32)cc1
60.1 µM: HCT-15
inactive: SF-268 45.9 µM | COLO 205 18.5 µM | OVCAR-5 11.7 µM | A549 41.8 µM | HT-29 > 100 µM | SK-MEL-28 > 100 µM | K562 22.5 µM | IGROV-1 24.1 µM | MDA-MB-435 83.9 µM | SN12C 45.9 µM | SF-539 40.5 µM | SNB-19 56 µM | T47D 11.8 µM | NCI-H460 11.1 µM | SF-295 33.3 µM | HOP-62 74.3 µM | SNB-75 21.1 µM | NCI/ADR-RES 35 µM

CCC(C)C1(O)OC2CC3(C)OC(=CC3=O)/C(C)=C\C3OC(=O)C1(C)C32 (stereo not given)
inactive: SF-268 13.9 µM | COLO 205 8.93 µM | OVCAR-5 28.3 µM | A549 24.8 µM | HT-29 14.2 µM | SK-MEL-28 14.3 µM | K562 7.6 µM | IGROV-1 18.8 µM | MDA-MB-435 11.9 µM | SN12C 11.8 µM | SF-539 22.3 µM | SNB-19 33.7 µM | T47D 15 µM | NCI-H460 14.2 µM | SF-295 20.5 µM | HOP-62 22.8 µM | SNB-75 37.2 µM | NCI/ADR-RES 17.2 µM
3.3 µM: HCT-15

O=C(c1cccnc1)N1N=C(c2ccc(Cl)cc2)CC1(O)c1cc(F)c(Cl)cc1Cl (stereo not given)
inactive: SF-268 19.2 µM | COLO 205 9.98 µM | OVCAR-5 33.7 µM | A549 24.9 µM | HT-29 14.8 µM | SK-MEL-28 23.6 µM | K562 16.6 µM | IGROV-1 1.65 µM | MDA-MB-435 15.9 µM | SN12C 14.1 µM | SF-539 12.2 µM | SNB-19 41.3 µM | T47D 2.39 µM | NCI-H460 21.5 µM | SF-295 19.5 µM | HOP-62 21.5 µM | SNB-75 5.7 µM | NCI/ADR-RES 16 µM
13.6 µM: HCT-15
